What was measured:
Jurkat-Bir3 cells = test: Sub-G1 apoptosis in Jurkat cells expressing XIAP-Bir3
[1] = system: MDA-435, MDA-468, and T47D cells; test: Cell growth inhibition, WST-8, breast cancer cell lines; assay type: cell-based, human; conditions: Homo sapiens, 120 h, 5 days, each of the three cell lines
Procedure: To test the effect of Smac mimetics by themselves in inhibition of cell growth in human cancer cells, SH-102 was administered to three different breast cancer cell lines. MDA-435, MDA-468, and T47D cells were seeded in 96-well plates with increasing concentrations of SH-102, Smac8, or Smac8-C. The cells were then incubated at 37° C. with 5% CO2 for 5 days, followed by detection of cell viability with WST-8 (10% Dojindo solution in IMEM with 10% FCS). OD values at 450 nm with reference at 650 nm were read approximately 3 hours later. Untreated cells were used as 100% growth. […]. […] (FIGS. 26A-26C).

Jurkat-XIAP cells = test: Sub-G1 apoptosis in Jurkat cells overexpressing XIAP
PC-3 cells = test: Apoptosis by Annexin V-FITC staining in PC-3 cells; assay type: cell-based, human
Excerpt: SH-97, a peptido-mimetic in which the side chain of alanine has been replaced with an ethyl group and the isoleucine has been replaced with a diphenylmethyl group, was used to test the basic premise. Of note, SH-97 still has two natural amino acids (valine and proline) and one natural peptide bond. […] The experiment used PC-3 cells which express high levels of XIAP and cIAP-1/2 proteins and cisplatin (CDDP) as the chemotherapeutic drug. CDDP is a DNA damaging agent and can effectively induce apoptosis in PC-3 cells and is also a clinically used chemotherapeutic drug for prostate cancer.
PC-3 cells were treated with CDDP, Smac peptides and mimetics alone or in combination for 42 hours and apoptosis was analyzed by Annexin V-FITC staining. […] Combination of 25 μM CDDP and 10 μM or 25 μM SH-97 induced 29.3%±1.9% and 35.8%±0.4% apoptosis over control cells, respectively (FIG. 18A).
Similar experiments were performed with SH-102 (Table 5). PC-3 cells in 6-well plates were treated with SH-102 and CDDP, alone or in combination, for 42 hours. Cells were collected and stained with Annexin V-FITC and propidium iodide. The fluorescence of Annexin V-FITC and propidium iodide of individual cells was analyzed by flow cytometry. […] Combination of 25 μM CDDP and 10 μM SH-102 induced 32% apoptosis over control cells (FIG. 19).
The same experiment was performed using TAXOTERE (docetaxel), another cancer chemotherapeutic drug. PC-3 cells in 6-well plates were treated with SH-102 and TAXOTERE, alone or in combination, for 42 hours. Cells were collected and stained with Annexin V-FITC and propidium iodide. The fluorescence of Annexin V-FITC and propidium iodide of individual cells was analyzed by flow cytometry. […] Combination of 10 μM TAXOTERE and 10 μM SH-102 induced about 18% apoptosis over control cells (FIG. 21).

MDA-231 cells = test: Apoptosis by Annexin V-FITC/propidium iodide in MDA-231 cells; assay type: cell-based, human
Procedure: Similar experiments were performed using the breast cancer cell line MDA-231. MDA-231 cells in 6-well plates were treated with SH-102 and CDDP, alone or in combination, for 42 hours. Cells were collected and stained with Annexin V-FITC and propidium iodide. The fluorescence of Annexin V-FITC and propidium iodide of individual cells was analyzed by flow cytometry. 25 μM and 50 μM CDDP induced about 25% and 42% of MDA-231 cells to undergo apoptosis as compared to control cells, respectively (FIG. 22). […] Combination of 25 and 50 μM CDDP and 10 μM SH-102 induced about 35% and 75% apoptosis over control cells, respectively (FIG. 22).

[2] = system: BT-549, MDA-MB-231 (subclone 2LMP), MDA-MB-231 (ATCC) and PC-3 cells; test: Cell growth inhibition, WST-8, cancer cell lines; assay type: cell-based, human
Procedure: (§1) To test the effect of [6.3.0] Smac mimetics in inhibition of cell growth in human cancer cells, compounds were administered to several different cancer cell lines. BT-549, MDA-MB-231 (subclone 2LMP), and MDA-MB-231 (ATCC) human breast cancer cells and PC-3 human prostate cancer cells were seeded in 96-well plates with increasing concentrations of the compounds. To assay for the selectivity of the compounds for cancer cells, normal prostate epithelial cells were also tested. The cells were then incubated at 37° C. with 5% CO2 for 5 days, followed by detection of cell viability with WST-8. Untreated cells were used as 100% growth. The compounds tested were SH-109, SH-122 and SH-123 (Table 6).

[3] = system: normal prostate epithelial cells; test: Cell growth inhibition, WST-8, normal cells; assay type: cell-based; conditions: 5 days
Procedure: as §1

[4] = system: MDA-MB-231 (subclone 2LMP) breast cancer cells; test: Cell growth inhibition in combination with TRAIL, WST-8; assay type: cell-based, human; conditions: 4 days
Procedure: To test the ability of SH-122 to enhance the cell growth inhibitory activity of TRAIL, MDA-MB-231 (subclone 2LMP) breast cancer cells were seeded in 96-well plates with various concentrations of TRAIL in the presence of increasing amounts of SH-122. The cells were then incubated at 37° C. with 5% CO2 for 4 days, followed by detection of cell viability with WST-8.

XIAP BIR3 = XIAP BIR3 (Homo sapiens, UniProt P98170); test: biochemical
XIAP BIR3, sequence (P98170 241-356): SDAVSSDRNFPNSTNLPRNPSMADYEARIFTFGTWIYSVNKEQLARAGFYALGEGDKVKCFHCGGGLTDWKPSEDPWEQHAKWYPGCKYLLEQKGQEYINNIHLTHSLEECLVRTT

Jurkat-Vec cells = test: Sub-G1 apoptosis in Jurkat cells with control vector; assay type: cell-based, human; conditions: 10 μM etoposide alone, 15 hours
Procedure: Data were analyzed to calculate the percentage of sub-G1 cells (apoptotic cells) using CellQuest software (Becton Dickinson).

XIAP = XIAP (Homo sapiens, UniProt P98170); conditions: background statement; cited from earlier work
XIAP, sequence (P98170 whole entry): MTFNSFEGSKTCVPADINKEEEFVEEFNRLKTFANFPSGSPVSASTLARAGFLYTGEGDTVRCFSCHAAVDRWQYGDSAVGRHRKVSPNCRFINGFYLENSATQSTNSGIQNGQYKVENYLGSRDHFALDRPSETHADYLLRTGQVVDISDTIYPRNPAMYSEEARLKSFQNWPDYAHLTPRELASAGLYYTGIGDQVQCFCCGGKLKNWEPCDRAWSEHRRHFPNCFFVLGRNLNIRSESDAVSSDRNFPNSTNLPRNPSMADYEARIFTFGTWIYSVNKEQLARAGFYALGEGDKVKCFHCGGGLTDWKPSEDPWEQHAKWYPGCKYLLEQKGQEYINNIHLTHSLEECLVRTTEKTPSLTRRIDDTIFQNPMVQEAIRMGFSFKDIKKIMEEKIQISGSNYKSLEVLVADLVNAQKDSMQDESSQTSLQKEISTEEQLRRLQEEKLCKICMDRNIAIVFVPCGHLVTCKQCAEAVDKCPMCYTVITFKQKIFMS

Molecule: CC[C@H](N)C(=O)N[C@H]1CCC[C@H]2CC[C@@H](C(=O)NC(c3ccccc3)c3ccccc3)N2C1=O [Compound 34]
- apoptosis (Jurkat-Bir3 cells; etoposide + 10 μM SH-102): about 25%
- apoptosis (Jurkat-Bir3 cells; etoposide + 20 μM SH-102): ~30%
- IC50 [1]: 30000 to 70000 nM
- effectiveness in overcoming protective effect of XIAP (Jurkat-XIAP cells; 10 μM SH-102 compared with 50 μM Smac8-C): at least as effective as 50 μM Smac8-C
- apoptosis (sub-G1) (Jurkat-XIAP cells; 10 μM SH-102 in combination with etoposide, 15 hours): about 15%
- apoptosis over control cells (PC-3 cells; 10 μM TAXOTERE + 10 μM SH-102, 42 hours): about 18%
- apoptosis over control cells (PC-3 cells; 25 μM CDDP + 10 μM compound, 42 hours): 32%
- apoptosis compared to untreated cancer cells (PC-3 cells; compound alone up to 100 μM, 42 hours): did not induce significantly more apoptosis
- ability to sensitize cells to CDDP (MDA-231 cells; 10 μM SH-102 compared with 100 μM pSmac8-C): as great as that of 100 μM pSmac8-C
- apoptosis over control cells (MDA-231 cells; 25 μM CDDP + 10 μM SH-102, 42 hours): about 35%
- apoptosis over control cells (MDA-231 cells; 50 μM CDDP + 10 μM SH-102, 42 hours): ~75%

Molecule: CC[C@H](NC)C(=O)N[C@H]1CCCC[C@H]2CC[C@@H](C(=O)NC(c3ccccc3)c3ccccc3)N2C1=O [SH-122]
- cell growth inhibition (in words) ([2]; 5 days, WST-8, each of the cancer cell lines): inhibited the cell growth
- rank of potency in cell growth inhibition ([2]; among SH-109, SH-122, SH-123, each cell line): most potent
- cell growth inhibition (in words) [3]: no cell growth inhibition effect
- decrease of the IC50 of TRAIL ([4]; 250 nM SH-122 with TRAIL): approximately ten-fold
- Ki (XIAP BIR3): 30 nM

Molecule: COc1cc([C@@H]2c3cc4c(cc3[C@@H](O[C@@H]3O[C@@H]5CO[C@@H](C)O[C@H]5[C@H](O)[C@H]3O)[C@H]3COC(=O)[C@H]23)OCO4)cc(OC)c1O [etoposide, reference compound]
- apoptosis (Jurkat-Bir3 cells; 20 μM etoposide alone): about 18%
- apoptotic cells (sub-G1) (Jurkat-XIAP cells; 10 μM etoposide alone, 15 hours): about 10%
- apoptotic cells (sub-G1) (Jurkat-Vec cells): about 50%

B1: mature Smac protein: mature Smac protein, endogenous inhibitor of XIAP (protein, UniProt Q9NR28 22-239, looked up)
Diablo IAP-binding …: LCVPVVANFKKRCFSELIRPWHKTVTIGFGVTLCAVPIAQKSEPHSLSSEALMRRAVSLVTDSTSTFLSQTTYALIEAITEYTKAVYTLTSLYRQYTSLLGKMNSEEEDEVWQVIIGARAEMTSKHQEYLKLETTWMTAVGLSEMAAEAAYQTGADQASITARNHIQLVKLQVEEVHQLSRKAETKLAEAQIEELRQKTQEEGEERAESEQEAYLRED
- Kd (XIAP): 420 nM

B2: TRAIL: tumor necrosis factor-related apoptosis-inducing ligand (protein, UniProt P50591 1-281, looked up)
Tumor necrosis factor ligand …: MAMMEVQGGPSLGQTCVLIVIFTVLLQSLCVAVTYVYFTNELKQMQDKYSKSGIACFLKEDDSYWDPNDEESMNSPCWQVKWQLRQLVRKMILRTSEETISTVQEKQQNISPLVRERGPQRVAAHITGTRGRSNTLSSPNSKNEKALGRKINSWESSRSGHSFLSNLHLRNGELVIHEKGFYYIYSQTYFRFQEEIKENTKNDKQMVQYIYKYTSYPDPILLMKSARNSCWSKDAEYGLYSIYQGGIFELKENDRIFVSVTNEHLIDMDHEASFFGAFLVG
- cell growth inhibition (in words) ([4]; TRAIL by itself): inhibited the growth of the cells in a dose dependent fashion

Reference: US7674787B2, “Conformationally constrained Smac mimetics and the uses thereof” (The Regents of the University of Michigan, priority 2004, dated 2010)
